From ChEMBL document CHEMBL1138274, “Discovery of potent and selective adamantane-based small-molecule P2X(7) receptor antagonists/interleukin-1beta inhibitors” (J Med Chem, 2007)
The source made the active and inactive calls. The calls are words filed in the database; no cut-off is given here.

Experiments:
P2X purinoceptor 7 [1] = molecular target: T1, P2X purinoceptor 7 (Rattus norvegicus, UniProt Q64663); experiment: Antagonist activity at rat P2X7 receptor transfected in HEK cells assessed as inhibition of benzoyl-ATP-induced changes in plasma membrane pore formation; type: functional, cell-based, HEK293; conditions: for Kb: read-out: pA2 (converted)
T1 sequence (Q64663 whole entry): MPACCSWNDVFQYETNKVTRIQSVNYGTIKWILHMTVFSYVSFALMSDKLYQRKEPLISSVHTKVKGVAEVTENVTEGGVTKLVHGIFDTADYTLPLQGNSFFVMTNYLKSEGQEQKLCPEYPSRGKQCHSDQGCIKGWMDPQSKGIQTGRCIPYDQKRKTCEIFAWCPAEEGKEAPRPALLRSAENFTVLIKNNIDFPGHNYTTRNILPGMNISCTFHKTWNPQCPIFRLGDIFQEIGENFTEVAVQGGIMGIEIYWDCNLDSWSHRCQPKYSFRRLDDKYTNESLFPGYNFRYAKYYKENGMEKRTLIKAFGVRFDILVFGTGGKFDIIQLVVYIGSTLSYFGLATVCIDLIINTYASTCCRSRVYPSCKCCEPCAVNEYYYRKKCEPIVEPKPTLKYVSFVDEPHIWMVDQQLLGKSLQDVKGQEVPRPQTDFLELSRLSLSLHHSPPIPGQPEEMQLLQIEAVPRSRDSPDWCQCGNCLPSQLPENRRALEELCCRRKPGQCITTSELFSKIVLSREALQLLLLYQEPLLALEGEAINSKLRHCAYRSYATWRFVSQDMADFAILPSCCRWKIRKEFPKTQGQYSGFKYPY

P2X purinoceptor 7 [2] = molecular target: T2, P2X purinoceptor 7 (Homo sapiens, UniProt Q99572); experiment: Antagonist activity at human P2X7 receptor transfected in THP1 cells assessed as inhibition of benzoyl-ATP-induced changes in plasma membrane pore formation; type: functional, cell-based, THP-1; conditions: read-out: pA2 (converted)
T2 sequence (Q99572 whole entry): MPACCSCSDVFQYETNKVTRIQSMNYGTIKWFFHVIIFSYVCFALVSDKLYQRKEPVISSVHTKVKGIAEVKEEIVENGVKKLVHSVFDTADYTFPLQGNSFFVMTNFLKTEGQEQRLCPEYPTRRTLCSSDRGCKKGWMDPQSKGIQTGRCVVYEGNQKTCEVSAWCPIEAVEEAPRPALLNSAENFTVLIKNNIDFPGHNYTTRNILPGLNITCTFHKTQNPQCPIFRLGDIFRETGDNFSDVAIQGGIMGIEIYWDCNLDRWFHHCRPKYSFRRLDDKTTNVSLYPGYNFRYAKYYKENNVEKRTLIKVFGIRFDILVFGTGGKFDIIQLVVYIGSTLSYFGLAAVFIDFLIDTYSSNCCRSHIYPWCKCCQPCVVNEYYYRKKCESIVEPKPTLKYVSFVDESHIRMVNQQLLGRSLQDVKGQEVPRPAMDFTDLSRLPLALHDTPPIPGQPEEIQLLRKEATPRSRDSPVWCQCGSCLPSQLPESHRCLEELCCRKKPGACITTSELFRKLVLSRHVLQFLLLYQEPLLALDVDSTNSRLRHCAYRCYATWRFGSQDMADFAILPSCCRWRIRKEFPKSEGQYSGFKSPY

Monocyte [3] = experiment: Inhibition of BzATP-induced IL18 release from LPS-primed human monocytes by ELISA; type: functional, cell-based
Monocyte [4] = experiment: Inhibition of BzATP-induced IL1-beta release from LPS-primed human monocytes by ELISA; type: functional, cell-based
[5] = Activity at sigma receptor; design: species or system Homo sapiens
[6] = molecular target: T3, P2X purinoceptor 3 (Homo sapiens) (UniProt P56373); experiment: Activity at human P2X3 receptor at 10 uM
T3 sequence (whole entry): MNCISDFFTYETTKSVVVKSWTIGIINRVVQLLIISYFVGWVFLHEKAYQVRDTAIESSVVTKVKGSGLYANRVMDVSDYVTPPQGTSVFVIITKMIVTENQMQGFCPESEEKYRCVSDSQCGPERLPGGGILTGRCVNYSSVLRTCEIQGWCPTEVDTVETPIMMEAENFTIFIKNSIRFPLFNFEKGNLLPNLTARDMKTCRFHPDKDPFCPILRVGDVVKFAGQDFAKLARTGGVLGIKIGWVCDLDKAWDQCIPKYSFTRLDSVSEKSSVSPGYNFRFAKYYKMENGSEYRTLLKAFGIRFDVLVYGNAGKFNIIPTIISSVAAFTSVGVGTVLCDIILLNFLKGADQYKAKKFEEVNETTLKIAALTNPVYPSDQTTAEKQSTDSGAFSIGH

[7] = molecular target: T4, P2X purinoceptor 4 (Homo sapiens) (UniProt Q99571); experiment: Activity at human P2X4 receptor at 10 uM
T4 sequence (whole entry): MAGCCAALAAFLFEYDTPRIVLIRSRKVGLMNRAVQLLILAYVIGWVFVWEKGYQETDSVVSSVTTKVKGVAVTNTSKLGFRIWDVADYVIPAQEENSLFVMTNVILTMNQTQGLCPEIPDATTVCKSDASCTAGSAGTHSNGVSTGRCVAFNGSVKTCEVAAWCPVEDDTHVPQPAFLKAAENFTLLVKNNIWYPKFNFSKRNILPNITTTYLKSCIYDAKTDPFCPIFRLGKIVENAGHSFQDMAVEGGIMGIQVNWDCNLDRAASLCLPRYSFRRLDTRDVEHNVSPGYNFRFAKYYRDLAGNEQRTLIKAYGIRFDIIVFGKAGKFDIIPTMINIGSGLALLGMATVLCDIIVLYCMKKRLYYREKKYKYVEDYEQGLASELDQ

[8] = molecular target: P2X purinoceptor 5 (Homo sapiens) (UniProt Q93086); experiment: Activity at human P2X5 receptor at 10 uM
Sequence of P2X purinoceptor 5 (Homo sapiens) (Q93086 whole entry): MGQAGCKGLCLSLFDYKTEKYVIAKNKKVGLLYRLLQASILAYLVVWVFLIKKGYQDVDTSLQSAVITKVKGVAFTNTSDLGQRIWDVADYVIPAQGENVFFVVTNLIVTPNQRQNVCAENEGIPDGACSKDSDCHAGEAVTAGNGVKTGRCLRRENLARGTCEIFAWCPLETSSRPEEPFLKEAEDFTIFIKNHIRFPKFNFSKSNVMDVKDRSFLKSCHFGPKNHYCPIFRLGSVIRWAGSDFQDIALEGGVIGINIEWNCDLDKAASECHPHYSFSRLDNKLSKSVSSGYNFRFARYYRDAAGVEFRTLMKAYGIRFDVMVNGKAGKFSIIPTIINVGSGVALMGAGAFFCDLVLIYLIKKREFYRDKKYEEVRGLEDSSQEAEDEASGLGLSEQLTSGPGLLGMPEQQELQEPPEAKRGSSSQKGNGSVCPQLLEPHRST

[9] = Protein binding in rat plasma; type: ADME, cell-free; conditions: read-out: PPB (converted)
Vasopressin V1a receptor = Vasopressin V1a receptor (Homo sapiens, UniProt P37288); experiment: Activity at vasopressin V1A receptor
Sequence of Vasopressin V1a receptor (P37288 whole entry): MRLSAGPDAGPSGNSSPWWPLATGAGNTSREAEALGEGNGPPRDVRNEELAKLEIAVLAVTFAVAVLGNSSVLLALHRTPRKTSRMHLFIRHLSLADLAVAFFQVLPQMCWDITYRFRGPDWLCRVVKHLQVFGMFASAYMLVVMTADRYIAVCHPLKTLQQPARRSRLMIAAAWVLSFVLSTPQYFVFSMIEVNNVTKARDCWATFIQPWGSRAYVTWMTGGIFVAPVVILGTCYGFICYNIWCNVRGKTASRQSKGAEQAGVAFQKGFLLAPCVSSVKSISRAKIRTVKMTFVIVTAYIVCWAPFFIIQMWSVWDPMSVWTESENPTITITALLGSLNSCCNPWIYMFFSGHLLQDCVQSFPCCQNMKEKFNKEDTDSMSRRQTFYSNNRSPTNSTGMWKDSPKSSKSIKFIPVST

[10] = molecular target: T5, P2X purinoceptor 1 (Homo sapiens) (UniProt P51575); experiment: Activity at human P2X1 receptor at 10 uM
T5 sequence (whole entry): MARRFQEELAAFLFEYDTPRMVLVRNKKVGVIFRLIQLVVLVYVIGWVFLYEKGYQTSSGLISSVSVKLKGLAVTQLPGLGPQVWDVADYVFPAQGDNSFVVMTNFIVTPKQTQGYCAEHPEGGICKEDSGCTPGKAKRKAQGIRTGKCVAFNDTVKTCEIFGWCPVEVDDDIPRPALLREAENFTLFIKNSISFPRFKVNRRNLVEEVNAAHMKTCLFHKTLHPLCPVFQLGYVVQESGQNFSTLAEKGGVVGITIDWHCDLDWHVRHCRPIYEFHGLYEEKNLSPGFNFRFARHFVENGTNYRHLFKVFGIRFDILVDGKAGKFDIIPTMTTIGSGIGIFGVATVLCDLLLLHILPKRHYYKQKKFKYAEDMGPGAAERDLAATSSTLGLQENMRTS

[11] = molecular target: T6, P2X purinoceptor 2 (Rattus norvegicus) (UniProt P49653); experiment: Activity at rat P2X2 receptor at 10 uM
T6 sequence (whole entry): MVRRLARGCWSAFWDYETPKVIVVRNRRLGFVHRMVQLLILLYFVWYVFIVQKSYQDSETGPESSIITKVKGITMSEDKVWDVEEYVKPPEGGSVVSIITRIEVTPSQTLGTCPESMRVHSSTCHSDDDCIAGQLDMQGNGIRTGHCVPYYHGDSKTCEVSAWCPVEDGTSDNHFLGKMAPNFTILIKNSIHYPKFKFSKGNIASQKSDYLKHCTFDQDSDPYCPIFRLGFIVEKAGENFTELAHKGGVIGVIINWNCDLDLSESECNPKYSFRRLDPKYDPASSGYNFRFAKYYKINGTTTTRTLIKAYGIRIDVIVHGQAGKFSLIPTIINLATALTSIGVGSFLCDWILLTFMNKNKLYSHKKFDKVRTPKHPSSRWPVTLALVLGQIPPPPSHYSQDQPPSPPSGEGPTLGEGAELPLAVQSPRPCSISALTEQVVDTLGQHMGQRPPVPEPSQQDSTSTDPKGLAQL

Rattus norvegicus = species on record: Rattus norvegicus; experiment: Activity at rat P2X2/3 heteromeric receptor at 10 uM
[12] = Bioavailability in Sprague-Dawley rat; type: ADME, organism-based; conditions: in vivo
[13] = Clearance in Sprague-Dawley rat; type: ADME, organism-based; conditions: in vivo
[14] = Volume of distribution at steady state in Sprague-Dawley rat; type: ADME, organism-based; conditions: in vivo, read-out: Vdss
Hepatocyte [15] = experiment: Intrinsic clearance in rat hepatocytes; type: ADME, cell-based, Liver
[16] = Half life in Sprague-Dawley rat; type: ADME, organism-based; conditions: in vivo
Hepatocyte [17] = experiment: Intrinsic clearance in human hepatocytes; type: ADME, cell-based, Liver

Row | SMILES | IC50 (P2X purinoceptor 7 [1]; read-out: Log IC50 (converted)) | Kb (P2X purinoceptor 7 [2]) | also measured
1 | O=C(NCC12CC3CC(CC(C3)C1)C2)c1cc(O[C@H]2CCCNC2)ccc1Cl | 0.1 µM | 0.01 µM | 
2 | O=C(NCC12CC3CC(CC(C3)C1)C2)c1c(Cl)cccc1OC1CCNCC1 | > 10 µM | > 10 µM | 
3 | O=C(NCC12CC3CC(CC(C3)C1)C2)c1cc(CN2CC3CNCC(C2)O3)ccc1Cl |  |  | Kb (P2X purinoceptor 7 [1]): 0.0251 µM
4 | Cc1oc(CN2CCNCC2)cc1C(=O)NCC12CC3CC(CC(C3)C1)C2 | > 10 µM | > 10 µM | Activity (Monocyte [3]): Active; Activity (Monocyte [4]): inactive
5 | Cc1sc(CN2CCNCC2)cc1C(=O)NCC12CC3CC(CC(C3)C1)C2 | > 10 µM | 0.316 µM | 
6 | O=C(NCC12CC3CC(CC(C3)C1)C2)c1cc(C2CCNCC2)ccc1Cl | 0.316 µM | 0.0158 µM | 
7 | O=C(NCC12CC3CC(CC(C3)C1)C2)c1cc(O[C@@H]2CCCNC2)ccc1Cl | 0.316 µM | 0.00631 µM | 
8 | O=C(NCC12CC3CC(CC(C3)C1)C2)c1cc(CC2CCNCC2)ccc1Cl | 0.0631 µM | 0.0158 µM | 
9 | O=C(NCC12CC3CC(CC(C3)C1)C2)c1cc(NC2CCNCC2)ccc1Cl | 0.501 µM | 0.0251 µM | 
10 | O=C(NCC12CC3CC(CC(C3)C1)C2)c1cc(OC2CCNCC2)ccc1Cl | 0.631 µM | 0.0158 µM | 
11 | Cc1ccc(C(=O)N2CC3CNCC(C2)O3)cc1C(=O)NCC12CC3CC(CC(C3)C1)C2 |  |  | IC50 [5]: 4 µM; Activity [6]: inactive; Activity [7]: inactive; Activity [8]: inactive; Kb (P2X purinoceptor 7 [1]): 0.0158 µM; fraction unbound [9]: 0.34; IC50 (Vasopressin V1a receptor): 7 µM; Activity [10]: inactive; Activity [11]: inactive; Activity (Rattus norvegicus): inactive
12 | O=C(NCC12CC3CC(CC(C3)C1)C2)c1cc(CN2C[C@@H]3C[C@H]2CN3)ccc1Cl | 0.251 µM | 0.00501 µM | 
13 | O=C(NCC12CC3CC(CC(C3)C1)C2)c1cccc(CN2CCCCC2)c1Cl | > 10 µM | 0.2 µM | 
14 | O=C(NCC12CC3CC(CC(C3)C1)C2)c1cc(NC2CCCNC2)ccc1Cl (racemic) |  | 0.00501 µM | IC50 (P2X purinoceptor 7 [1]; read-out: IC50): 0.03 µM
15 | O=C(NCC12CC3CC(CC(C3)C1)C2)c1cc(CN2CCNCC2)ccc1Cl | 0.398 µM | 0.01 µM | IC50 (Monocyte [3]): 0.0398 µM; bioavailability [12]: 79%; clearance [13]: 13 mL/min/kg; Vd [14]: 5.31 L/kg; CL (Hepatocyte [15]): < 5 µL/min; half-life [16]: 5.2 h; IC50 (Monocyte [4]): 0.0794 µM; CL (Hepatocyte [17]): < 3 µL/min
16 | O=C(NCC12CC3CC(CC(C3)C1)C2)c1cc(N2CCNCC2)ccc1Cl | 1.26 µM | 0.0316 µM | 
17 | O=C(NCC12CC3CC(CC(C3)C1)C2)c1ccc(CN2CCCCC2)cc1Cl | 0.794 µM | 0.126 µM | 
18 | O=C(NCC12CC3CC(CC(C3)C1)C2)c1cc(CC2CCCNC2)ccc1Cl (racemic) |  | 0.00631 µM | IC50 (P2X purinoceptor 7 [1]; read-out: IC50): 0.03 µM
19 | Cc1nnc(OC2CCNCC2)cc1C(=O)NCC12CC3CC(CC(C3)C1)C2 | 0.794 µM | 1.58 µM | 
20 | O=C(NCC12CC3CC(CC(C3)C1)C2)c1cc(C(=O)N2CC3CNCC(C2)O3)ccc1Cl |  |  | IC50 [5]: 4 µM; Activity [6]: inactive; Activity [7]: inactive; Activity [8]: inactive; IC50 (Vasopressin V1a receptor): 7 µM; Activity [11]: inactive; Activity (Rattus norvegicus): inactive
21 | O=C(NCC12CC3CC(CC(C3)C1)C2)c1nc(OC2CCCNC2)ncc1Cl (centres undefined) | 0.316 µM | 0.251 µM | 
